According to US8133685B2, “AMPK modulation as a method of regulating stem cell and cancer stem cell proliferation, self-renewal and differentiation” (Washington University, priority 2008, dated 2012):

Experiments:
[1] = system: Neural Stem and Progenitor cells (NPCs); test: NPC proliferation: count of trypan blue negative (live) cells after 48 hours of growth; format: cell-based, mouse; conditions: E12.5 forebrain wildtype NPCs, vs DMSO, p<0.001
Experimental: FIG. 26. […] Embryonic day 12.5 forebrain wildtype NPCs were cultured for 4 days and seeded as single cells in presence of DMSO (control), or the AMPK inhibitors Compound C (10 μM) and Adenine 9-β-D-arabinofuranoside (Ara A 1 mM). Following 48 hours of growth in medium supplemented with EGF ([…]) and bFGF ([…]), neurospheres were trypsinized and trypan blue negative (live) cells were counted on a hemocytometer. * p<0.001
Neurospheres were dissected from E12.5 CNS telencephalic lobes and cultured in neurobasal medium supplemented with B27 and N2, as described previously (Dasgupta, B. and Gutmann, D. H., J. Neurosci. 25, 5584-5594, 2005). […] At each time point, resulting neurospheres were trypsinized and counted on a hemocytometer. For self-renewal assays, single neurospheres were picked up by pipette and neurosphere diameter was measured individually under microscope. Ten similar-sized neurospheres of each genotype were triturated individually before plating, and the number of resulting secondary neurospheres generated per primary neurosphere was counted after 6 days. Neurosphere diameters were measured using Metamorph software. […] Briefly, NPCs were pulse labeled with […] CFSE at 37° C. for 15 min, washed, and one-half of the cells were analyzed by FACS, while the other half was analyzed after 4 days of growth. […]

AMPK holoenzyme = test: Nonradioactive in vitro kinase assay: immunoprecipitated AMPK holoenzyme phosphorylating recombinant Rb fusion protein (residues 701-928); format: biochemical, mouse; conditions: AMPK immunoprecipitated from WT NPCs, phospho-Rb800/804 immunoblot
Experimental: Nonradioactive in vitro kinase assay was performed as previously described (Lee et al., Nature 447, 1017-1020, 2007), with minor modifications. Briefly, WT NPCs were lysed with MAPK buffer, and AMPK was immunoprecipitated from WT NPCs with AMPKα1/2 antibody, washed with a buffer containing 10 mM Tris-Hcl (pH 7.5) and 0.5 M LiCl, and suspended in kinase buffer containing 0.5 mM ATP. CyclinD1/D2 (associated with CDK4/6) was immunoprecipitated with cyclinD1 and cyclinD2 antibodies. Reactions were carried out at 30° C. for 1 hr by adding RB-C fusion protein (residues 701-928; Cell Signaling Technology, Beverly, Mass.) to the reaction mix. Reaction was terminated by adding 6× Laemmli buffer and boiling for 5 min. Samples were resolved in 10% SDS-PAGE, and Western blot analysis was performed with phospho-RbSer^800/804 (Ser^807/811 in human) antibody (Cell Signaling Technology).
The CDK-cyclin D complex is known to phosphorylate Rb at Ser804. […] CDK4/6, which exist in complexes with cyclinD1/D2, were immunoprecipitated using cyclin D1/2 antibodies, and the activity was measured by nonradioactive in vitro kinase assays using bacterially produced Rb fusion protein (residues 701-928) as the substrate. […] In these experiments, phosphorylation was monitored by immunoblot using phosphor-Rb800/804 antibody. […]

AMPK = test: Immunoblot of pAMPK and pRb in WT NPCs after growth factor (EGF and FGF) withdrawal and re-administration; format: cell-based, mouse; conditions: growth factors withdrawn 2 h, re-administered 1 h in presence of compound C (CC; 5 mM per FIG. 54 legend)
From the text: FIG. 54. This figure illustrates that energy restriction and growth factor signaling utilize the AMPK-Rb axis to enhance NPC proliferation. […] (B and C) Proliferation assay of WT NPCs (B) and β1−/−NPCs (C) cultured for 48 hr under glucose-limiting conditions (Cont=25 Mm glucose, which is the amount in neurobasal medium). Data are representative of three independent experiments (#p=0.07; *p % 0.005). Error bars indicate SD. (D and E) Densitometric analysis using phospho-specific AMPKα^Thr172, Rb^Ser800/804, ACC^Ser79, and pan AMPKα, Rb, and ACC antibodies. AU, arbitrary units.
Cultured NPCs or MEFs were lysed with MAPK lysis buffer (20 mM Tris-HCL, pH 7.5, 150 mM, NaCl, 1 mM EGTA, 1 mM EDTA, 1% TritonX-100, 2.5 mM sodium pyrophosphate, 1 mM β-glycerophosphate, 1 mM sodium vanadate, 1 mM PMSF, 1 mM DTT and protease inhibitor cocktail). AMPK was immunoprecipitated with AMPKα1/2 antibody (Cell Signaling Technology), Rb was immunoprecipitated with Rb antibody (Santa Cruz Biotechnology, Santa Cruz, Calif.) and cyclinD1/D2 (associated with CDK4/6) was immunoprecipitated with CyclinD1 and CyclinD2 antibodies (Cell Signaling Technology). […] The immunoprecipitated proteins were analyzed by standard immunoblot analysis. […]

WT NPCs = test: Proliferation assay of WT NPCs cultured 48 hr under glucose-limiting conditions; format: cell-based, mouse; conditions: 2.5-25 mM glucose
Experimental: FIG. 54. This figure illustrates that energy restriction and growth factor signaling utilize the AMPK-Rb axis to enhance NPC proliferation. (A) Densitometric analysis of WT NPCs using indicated antibodies after 2-hr growth factor stimulation in the presence or absence of AMPK inhibitor compound C (CC; […]). (B and C) Proliferation assay of WT NPCs (B) and β1−/−NPCs (C) cultured for 48 hr under glucose-limiting conditions (Cont=25 Mm glucose, which is the amount in neurobasal medium). Data are representative of three independent experiments (#p=0.07; *p % 0.005). Error bars indicate SD. […]
Neurospheres were dissected from E12.5 CNS telencephalic lobes and cultured in neurobasal medium supplemented with B27 and N2, as described previously (Dasgupta, B. and Gutmann, D. H., J. Neurosci. 25, 5584-5594, 2005). […] At each time point, resulting neurospheres were trypsinized and counted on a hemocytometer. For self-renewal assays, single neurospheres were picked up by pipette and neurosphere diameter was measured individually under microscope. Ten similar-sized neurospheres of each genotype were triturated individually before plating, and the number of resulting secondary neurospheres generated per primary neurosphere was counted after 6 days. Neurosphere diameters were measured using Metamorph software. […]

Rb-E2F1 = test: Immunoprecipitation with Rb antibody and Western blot with E2F1 antibody from NPCs; format: cell-based, mouse; set-up: dose or concentration left out as unconfirmed; conditions: NPCs grown in indicated glucose concentration
Experimental: FIG. 56. This figure illustrates that energy restriction and growth factor signaling utilize the AMPK-Rb axis to enhance NPC proliferation. (A) Immunoprecipitation assay using Rb antibody and Western blot with E2F1 antibody from NPCs grown in the indicated glucose concentration in the absence or presence of CC ([…]). (B) Immunohistochemistry of saggital sections of E14.5 wildtype and β1−/− body using pHistoneH3 antibody (red).
Cultured NPCs or MEFs were lysed with MAPK lysis buffer (20 mM Tris-HCL, pH 7.5, 150 mM, NaCl, 1 mM EGTA, 1 mM EDTA, 1% TritonX-100, 2.5 mM sodium pyrophosphate, 1 mM β-glycerophosphate, 1 mM sodium vanadate, 1 mM PMSF, 1 mM DTT and protease inhibitor cocktail). […] The immunoprecipitated proteins were analyzed by standard immunoblot analysis. […]
AMPK is integrally involved in regulating cellular energy homeostasis and is activated by low cellular ATP levels, such as occurs by limiting oxygen or glucose supplies or exercise, conditions that enhance proliferative capacity of stem cells (Burgers et al., Exp. Brain Res. 188, 33-43, 2008; Fu et al., Diabetologia 49, 1027-1038, 2006; Stolzing et al., Rejuvenation Res. 9, 31-35, 2006). To explore whether the proliferative effects of glucose restriction are manifested through activation of the AMPK-Rb axis, we monitored the growth of WT NPCs cultured in 2.5-25 mM (the amount present in neurobasal medium) glucose for 48 hr. […]

| AMPK phosphorylation of Rb at Ser804 (AMPK holoenzyme) | Structure (SMILES) | proliferation of NPCs (live cell count) ([1]; 1 mM) | increase in phosphoAMPK (pAMPK Thr172) on EGF and FGF re-administration (AMPK) | increase in phosphoRb (Ser800/804) on EGF and FGF re-administration (AMPK) | proliferation of NPCs (live cell count) ([1]; 10 μM) | NPC growth stimulation by low glucose (WT NPCs) | neurosphere growth (WT NPCs) | Rb sequestration of E2F1 (Rb-bound E2F1) (Rb-E2F1) |
| --- | --- | --- | --- | --- | --- | --- | --- | --- |
| – | Nc1ncnc2c1ncn2[C@@H]1O[C@H](CO)[C@@H](O)[C@@H]1O [Ara A, Adenine 9-β-D-arabinofuranoside] | drastically reduces proliferation | – | – | – | – | – | – |
| could be inhibited | c1cc(-c2cnn3cc(-c4ccc(OCCN5CCCCC5)cc4)cnc23)ccn1 [Compound C, 6-[4-(2-piperidin-1-ylethoxy)-phenyl]-3-pyridin-4-ylpyrazolo[1,5-α]pyrimidine] | – | no increase | no increase | drastically reduces proliferation | not observed | severely inhibited | higher levels |
